Like-named read-outs stand apart in the source and are kept apart here.
Experiments:
ATX = ATX (Homo sapiens (Human), UniProt Q13822); assay: ATX enzyme inhibition assay (Amplex UltraRed/choline oxidase/HRP, 16:0 Lyso PC substrate); type: biochemical
Protocol: All compounds were prepared as a 10 mM DMSO stock solution.
Solutions at pH 8.5 and pH 7.5 were prepared respectively with the following formulations:
All compounds, including the positive control compound, were diluted 5-fold from 10 mM to 2 mM with DMSO in the first step. The mixture was then diluted to 100 μM with 1× assay buffer.
3. Separate Detection of Compounds with 1× Assay Buffer at Two pH Values:
a) 5 μL of 10× compound diluent was added to a 384-well plate (Greiner 781209) using a motorized pipette (see the “experimental preparation” step). 5 μL of 1× assay buffer containing 5% DMSO was added to both negative and positive control wells. The plate was centrifuged at 300 rpm for 1 minute at room temperature.
b) 2× ATX ([…]) was prepared with 1× assay buffer, and 25 μL of 2× ATX was added to the plate using a motorized pipette. 25 μL of 1× assay buffer was added to the negative control wells and 25 μL of 2× ATX was added to the positive control wells. The plate was centrifuged at 300 rpm for 1 minute at room temperature.
The plate was incubated at room temperature for 10 minutes.
c) 2.5× working solution containing Amplex UltraRed reagent (125 μM), HRP (2.5 U/mL), choline oxidase (1.25 U/mL), and 16:0 Lyso PC (75 μM) was prepared with 1× assay buffer. 20 μL of 2.5× working solution was added to all reaction wells using a motorized pipette. The plate was centrifuged at 300 rpm for 1 minute at room temperature.
d) The plate was detected by SpectraMax with the following procedures: fluorescence mode; excitation at 550 nm; emission at 590 nm; kinetics; read once every 2 minutes; read continuously for 60 minutes.
The calculation formula of % inhibition (i.e., % inhibition rate) was as follows: […]
V0: X-axis is taken as 0 to 30 minutes, Y-axis is taken as fluorescence readings, and the slope corresponding to the straight line fitted by the software GraphPad Prism 8 is the initial response rate.
V0max: Average V0 of the positive control wells in the plate.
V0min: Average V0 of the negative control wells in the plate.
The IC50 of the compounds was calculated from a nonlinear regression line (dose-initial response rate) fitted by % inhibition and log value of compound concentration using the software GrahPad Prism 8.

[1] = tested on: plasma LPA 18:1 and LPA 18:2; assay: Human plasma ex vivo assay (LPA 18:1 / 18:2 by LC-MS/MS); type: biochemical; details: 37° C., 2 hours
Protocol: The collected plasma was centrifuged at 4000 rpm for 15 minutes at 4° C. The supernatant was aliquoted into a 96-well plate (25 μL per well), sealed, and frozen at −80° C. for further use.
LPA 17:0 powder was dissolved in a mixed solution of water: isopropanol: formic acid (1:1:1) to a final concentration of […]. The mixture was aliquoted and frozen at −20° C.
1 volume of formic acid was added to 1000× methanol, mixed well, and stored at 4° C. a) The 96-well plate containing frozen plasma was removed from the −80° C. freezer and thawed on ice at room temperature. b) 6 μL of 50× LPA 17:0 (internal standard) and 264 μL of 0.1% FA were added to a clean well of the 96-well plate; the final concentration of LPA 17:0 (internal standard) was 50 nM. c) 6× compound was 1:3 serially diluted to a total of 8 concentrations, and 5 μL of the compound per well was added to the 96-well plate containing plasma. The maximum final concentration of the compound was 10 μM, and the final concentration of DMSO was 0.1%. The plate was centrifuged at 300 rpm for 30 seconds. The DMSO control sample reacted for 0 hours was used as the minimum value (Min), and the DMSO control sample reacted for 2 hours was used as the maximum value (Max). […]
d) The DMSO sample reacted for 0 hours was rapidly transferred to 0.1% FA solution containing the internal standard in step b) to terminate the reaction and precipitate plasma proteins. e) The 96-well plate containing plasma and compounds was rapidly incubated in a 37° C. incubator for 2 hours. After the incubation, 6 μL of 10× LPA 17:0 and 264 μL of 0.1% FA were added to each well to terminate the reaction and precipitate plasma proteins. […]
f) All the samples were mixed well with a pipette, and centrifuged at 4000 rpm for 10 minutes at 4° C. 150 μL of the supernatant was added to a 96-well U-bottom plate (Thermo 267245), sealed with silica gel, and then loaded. The contents of LPA 18:1 and LPA 18:2 in the samples were detected by LC-MS/MS system.
LPA 18:1(or 18:2) relative content=LPA 18:1(or 18:2) peak area/LPA 17:0 peak area Percentage reduction (%) in plasma LPA18:1(or 18:2)=(Max−X)/(Max−Min)*100 Max: LPA 18:1 (or 18:2) relative content of the DMSO sample reacted for 2 hours Min: LPA 18:1 (or 18:2) relative content of the DMSO sample reacted for 0 hours X: LPA 18:1 (or 18:2) relative content of the sample after compound treatment for 2 hours The IC50 of the compounds was calculated by fitting a nonlinear regression through percentage reduction in plasma LPA 18:1 (or 18:2) and log value of compound concentration using the software GraphPad Prism 8.
Y=Bottom+(Top−Bottom)/(1+10^((Log IC50−X)*Hill Slope))

[2] = assay buffer pH 8.5, read-out: IC50 (nM) pH 8.5
[3] = LPA 18:1, read-out: Human plasma ex vivo assay IC50 (18:1 LPA)
[4] = LPA 18:2, read-out: Human plasma ex vivo assay IC50 (18:2 LPA)
[5] = assay buffer pH 7.5, read-out: IC50 (nM) pH 7.5

Row | Structure (SMILES) | IC50 (ATX; [2]) [nM] | also measured
1 | C[C@@H]1CN(CC(=O)N2CC(O)C2)CCN1c1cc(F)c2nc3c(c(N(C)c4nc(-c5ccc(F)cc5)c(C#N)s4)c2c1)CC[C@H]3O (single isomer, unassigned) [Example E6-b] | 14 | IC50 [1, 3]: 0.387 µM; IC50 [1, 4]: 0.431 µM
2 | C[C@H]1CN(CC(=O)N2CC(O)C2)CCN1c1cc(F)c2nc3c(c(N(C)c4nc(-c5ccc(F)cc5)c(C#N)s4)c2c1)CC[C@@H]3O (single isomer, unassigned) [Example E7-a] | 15.2 | IC50 [1, 3]: 0.369 µM; IC50 [1, 4]: 0.351 µM
3 | C[C@H]1CN(c2cc(F)c3nc4c(c(N(C)c5nc(-c6ccc(F)cc6)c(C#N)s5)c3c2)CC[C@@H]4O)CCN1CC(=O)N1CC(O)C1 (single isomer, unassigned) [Example E8-a] | 22.5 | IC50 [1, 3]: 0.28 µM; IC50 [1, 4]: 0.324 µM
4 | CN(c1nc(-c2ccc(F)cc2)c(C#N)s1)c1c2c(nc3c(F)cc(N4CC5(CN(C(=O)[C@H]6COC[C@@H]6O)C5)C4)cc13)[C@H](O)CC2 (single isomer, unassigned) [Example E20-d] | 29.2 | 
5 | CN(c1nc(-c2ccc(F)cc2)c(C#N)s1)c1c2c(nc3c(F)cc(N4CCN(CC(=O)N5CC(O)C5)CC4)cc13)C(O)CC2 (stereo not drawn) [E1-1] | 21.3 | 
6 | N#Cc1cc(Br)cc(F)c1NC1=CCCC1=O [E1-2] | 18.2 | 
7 | CN(c1nc(-c2ccc(F)cc2)c(C#N)s1)c1c2c(nc3c(F)cc(N4CCN(CC(=O)N5CC(F)(F)C5)CC4)cc13)CCC2 [Example A15] | 134 | IC50 (ATX; [5]): 656 nM
8 | CN(c1nc(-c2ccc(F)cc2)c(C#N)s1)c1c2c(nc3c(F)cc(N4CC5(CN(CC(=O)N6CC(O)C6)C5)C4)cc13)CCO2 [Example A23] | 75.3 | 
9 | CN(c1nc(-c2ccc(F)cc2)c(C#N)s1)c1c2c(nc3c(F)cc(N4CCN(CC(=O)N5CC(O)C5)CC4)cc13)CCCC2 [Example A27] | 111 | 
10 | CN(c1nc(-c2ccc(F)cc2)c(C#N)s1)c1c2c(nc3c(F)cc(N4CC5(CN(CC(=O)N6CC(CO)C6)C5)C4)cc13)COC2 [Example A28] | 226 | 
11 | CN(c1nc(-c2ccc(F)cc2)c(C#N)s1)c1c2c(nc3c(F)cc(N4CC5(CN(CC(=O)N6CC(CO)C6)C5)C4)cc13)CCO2 [Example A29] | 111 | 
12 | C[C@H]1CN(CC(=O)N2CC(O)C2)CCN1c1cc(F)c2nc3c(c(N(C)c4nc(-c5ccc(F)cc5)c(C#N)s4)c2c1)COC3 [Example A30] | 22.1 | 
13 | C[C@@H]1CN(CC(=O)N2CC(O)C2)CCN1c1cc(F)c2nc3c(c(N(C)c4nc(-c5ccc(F)cc5)c(C#N)s4)c2c1)COC3 [Example A31] | 26.9 | 
14 | C[C@@H]1CN(c2cc(F)c3nc4c(c(N(C)c5nc(-c6ccc(F)cc6)c(C#N)s5)c3c2)COC4)CCN1CC(=O)N1CC(O)C1 [Example A32] | 94.3 | 
15 | C[C@H]1CN(c2cc(F)c3nc4c(c(N(C)c5nc(-c6ccc(F)cc6)c(C#N)s5)c3c2)COC4)CCN1CC(=O)N1CC(O)C1 [Example A33] | 44.6 | 
16 | CN(c1nc(-c2ccc(F)cc2)c(C#N)s1)c1c2c(nc3c(F)cc(N4CC5(CN(CC(=O)N6CC(C)(O)C6)C5)C4)cc13)COC2 [Example A34] | 446 | 
17 | CN(c1nc(-c2ccc(F)cc2)c(C#N)s1)c1c2c(nc3c(F)cc(N4CCN(CC(=O)N5CC(C)(O)C5)CC4)cc13)COC2 [Example A35] | 66.8 | 

Row | Structure (SMILES) | IC50 (ATX; [2]) [nM] | also measured
18 | CN(c1nc(-c2ccc(F)cc2)c(C#N)s1)c1c2c(nc3c(F)cc(N4CC5(CN(C(=O)[C@@H]6CCOC6)C5)C4)cc13)CCO2 [Example C11] | 61.9 | IC50 (ATX; [5]): 132 nM
19 | CN(c1nc(-c2ccc(F)cc2)c(C#N)s1)c1c2c(nc3c(F)cc(N4CC5(CN(C(=O)C(C)(C)O)C5)C4)cc13)COC2 [Example C21] | 49.1 | 
20 | CN(c1nc(-c2ccc(F)cc2)c(C#N)s1)c1c2c(nc3c(F)cc(N4CC5(CN(C(=O)C6(O)CC6)C5)C4)cc13)COC2 [Example C22] | 73 | 
21 | CN(c1nc(-c2ccc(F)cc2)c(C#N)s1)c1c2c(nc3c(F)cc(N4CCN(CC(=O)N5CC(O)C5)CC4)cc13)C(=O)CC2 [Example E2] | 3.46 | 
22 | CN(c1nc(-c2ccc(F)cc2)c(C#N)s1)c1c2c(nc3c(F)cc(N4CC5(CN(C(=O)[C@H]6CCOC6)C5)C4)cc13)C(=O)CC2 [Example E3] | 30.7 | 
23 | CN(c1nc(-c2ccc(F)cc2)c(C#N)s1)c1c2c(nc3c(F)cc(N4CC5(CN(C(=O)[C@@H]6CCOC6)C5)C4)cc13)C(=O)CC2 [Example E4] | 24.5 | 
24 | CN(c1nc(-c2ccc(F)cc2)c(C#N)s1)c1c2c(nc3c(F)cc(N4CC5(CN(C(=O)C6CCOC6)C5)C4)cc13)C(O)CC2 (stereo not drawn) [Example E5] | 21.8 | 
25 | CN(c1nc(-c2ccc(F)cc2)c(C#N)s1)c1c2c(nc3c(F)cc(N4CC5(CN(CC(=O)N6CCCC6)C5)C4)cc13)C(O)CC2 (stereo not drawn) [Example E11] | 35.7 | 
26 | CN(c1nc(-c2ccc(F)cc2)c(C#N)s1)c1c2c(nc3c(F)cc(N4CC5(CN(CC(=O)N6CC[C@H](O)C6)C5)C4)cc13)C(O)CC2 (stereo partly drawn) [Example E12] | 97.6 | 
27 | CN(c1nc(-c2ccc(F)cc2)c(C#N)s1)c1c2c(nc3c(F)cc(N4CC5(CN(C(=O)[C@@H]6CCOC6)C5)C4)cc13)C(O)CC2 (stereo partly drawn) [Example E13] | 23.5 | 
28 | CN(c1nc(-c2ccc(F)cc2)c(C#N)s1)c1c2c(nc3c(F)cc(N4CC5(CN(C(=O)C6(O)CCOC6)C5)C4)cc13)C(O)CC2 (stereo not drawn) [Example E19] | 20.4 | 
29 | CN(c1nc(-c2ccc(F)cc2)c(C#N)s1)c1c2c(nc3c(F)cc(N4CC5(CN(C(=O)C6COCC6O)C5)C4)cc13)C(O)CC2 (stereo not drawn) [Example E20] | 23.5 | 
30 | CN(c1nc(-c2ccc(F)cc2)c(C#N)s1)c1c2c(nc3c(F)cc(N4CCN(CC(=O)NO)CC4)cc13)CC2 [Example F1] | 44.9 | 
31 | CN(c1nc(-c2ccc(F)cc2)c(C#N)s1)c1c2c(nc3c(F)cc(N4CCN(CC(=O)N5CC6(CC(O)C6)C5)CC4)cc13)CC2 [Example F2] | 65.2 | 
32 | CN(c1nc(-c2ccc(F)cc2)c(C#N)s1)c1c2c(nc3c(F)cc(N4CCN(CC(=O)N5CC6(CCOCC6)C5)CC4)cc13)CC2 [Example F3] | 60.6 | 
33 | CN(c1nc(-c2ccc(F)cc2)c(C#N)s1)c1c2c(nc3c(F)cc(N4CCN(CC(=O)N5CC6(CCS(=O)(=O)CC6)C5)CC4)cc13)CC2 [Example F4] | 19.6 | 
34 | CN(c1nc(-c2ccc(F)cc2)c(C#N)s1)c1c2c(nc3c(F)cc(N4CCN(CC(=O)N5CC6(CCC(O)CC6)C5)CC4)cc13)CC2 [Example F5] | 19.9 | 
